A short description of assay [1]: cells. The note with it: Homo sapiens, HeLa, 48 h.
Assay [2] is described as follows: cells. As to conditions: Homo sapiens, ECa-109, 48 h.
A short description of assay [3]: cells. As to conditions: Homo sapiens, DU-145, 48 h.
Assay [4] can be described thus: cells. As to conditions: Homo sapiens, MCF7, 48 h.

Molecules are shown by their SMILES.

In general, IC50 refers to the concentration that gives 50% inhibition. Read a low IC50 as higher potency. Take `O=C(/C=C/c1ccc(O)c(O)c1)OCCc1ccc(F)cc1`: the IC50 is 35.8 µM in “cells [1]”, 51.9 µM in “cells [2]”, 12.8 µM in the assay “cells [3]” and 29.9 µM in the assay “cells [4]”.

For `Cc1ccc(CCOC(=O)/C=C/c2ccc(O)c(O)c2)cc1`, the IC50 in “cells [1]” worked out at 25.8 µM; in the assay “cells [2]”, 20.9 µM; in “cells [3]”, 36.9 µM; in “cells [4]” it was 20.6 µM.

For `COc1ccc(CCOC(=O)/C=C/c2ccc(O)c(O)c2)cc1`, the IC50 came to 67.7 µM in the assay “cells [1]”, 111 µM in the assay “cells [2]”, 67.5 µM in the assay “cells [3]” and 78 µM in “cells [4]”.

Take `O=C(/C=C/c1ccc(O)c(O)c1)OCCc1ccc(Br)cc1`: the IC50 in “cells [1]” was determined as 56.8 µM; in “cells [2]”, 40.3 µM; in the assay “cells [3]” it was 35.4 µM; in the assay “cells [4]” it was 28.2 µM.

Turning to `O=C(/C=C/c1ccc(O)c(O)c1)OCCc1ccccc1O`, the IC50 came to 29.4 µM in the assay “cells [1]”, 40.2 µM in “cells [2]”, 24.4 µM in “cells [3]” and 21.8 µM in “cells [4]”.

For the compound `CCc1ccccc1CCOC(=O)/C=C/c1ccc(O)c(O)c1`, the IC50 was 4.2 µM in the assay “cells [1]”, 7.3 µM in the assay “cells [2]”, 4.7 µM in “cells [3]” and 8.7 µM in the assay “cells [4]”.

Take `Cc1ccccc1CCOC(=O)/C=C/c1ccc(O)c(O)c1`: the IC50 is 2.3 µM in the assay “cells [1]”, 8.2 µM in the assay “cells [2]”, 6.6 µM in the assay “cells [3]” and 2.5 µM in “cells [4]”.

On to `CC(C)Oc1ccccc1CCOC(=O)/C=C/c1ccc(O)c(O)c1`, for which the IC50 in the assay “cells [1]” came out at 3.2 µM; in the assay “cells [2]” it was 15.1 µM; in “cells [3]” it was 9.1 µM; in the assay “cells [4]”, 5.6 µM.

As to `Cc1cccc(CCOC(=O)/C=C/c2ccc(O)c(O)c2)c1`, the IC50 in “cells [1]” is 5.4 µM; in “cells [2]”, 16.7 µM; in the assay “cells [3]” it was 21.4 µM; in “cells [4]”, 26.3 µM.

Take `O=C(/C=C/c1ccc(O)c(O)c1)OCCc1ccc(Cl)cc1`: the IC50 turned out to be 22.5 µM in the assay “cells [1]”, 28.4 µM in “cells [2]”, 22.1 µM in the assay “cells [3]” and 17.6 µM in the assay “cells [4]”.

`COc1ccccc1CCOC(=O)/C=C/c1ccc(O)c(O)c1`: the IC50 in the assay “cells [1]” came to 1.6 µM; in the assay “cells [2]”, 5.9 µM; in the assay “cells [3]”, 2 µM; in “cells [4]”, 7.1 µM.

Consider `O=C(/C=C/c1ccc(O)c(O)c1)OCCc1ccccc1` [CAFFEIC ACID PHENETHYL ESTER], for which the half-inhibitory concentration (IC50) in the assay “cells [1]” turned out to be 33 µM; in the assay “cells [2]”, 47.5 µM; in the assay “cells [3]”, 16 µM; in the assay “cells [4]” it was 28.8 µM.

With `CC(=O)O[C@H]1C(=O)[C@@]2(C)[C@H]([C@H](OC(=O)c3ccccc3)[C@]3(O)C[C@H](OC(=O)[C@H](O)[C@@H](NC(=O)c4ccccc4)c4ccccc4)C(C)=C1C3(C)C)[C@]1(OC(C)=O)CO[C@@H]1C[C@@H]2O` [PACLITAXEL], the IC50 in “cells [1]” stood at 0.036 µM; in “cells [2]”, 0.94 µM; in the assay “cells [3]”, 0.011 µM; in “cells [4]”, 0.63 µM.

For the compound `O=C(/C=C/c1ccc(O)c(O)c1)OCCc1ccc(O)cc1` [TYROSOL CAFFEATE], the IC50 in “cells [1]” worked out at 45.8 µM; in “cells [2]”, 49.4 µM; in “cells [3]”, 51.9 µM; in “cells [4]”, 53.2 µM.

The values are drawn from ChEMBL document CHEMBL3872276, “Antiproliferative activity and SARs of caffeic acid esters with mono-substituted phenylethanols moiety” (Bioorg Med Chem Lett, 2017).
